Biological target: USP30 (Homo sapiens (Human), UniProt Q70CQ3)
Test: USP30 biochemical IC50 assay
Settings: fluorescence polarisation, TAMRA labelled peptide linked to ubiquitin as substrate; enzyme and compound incubated 30 min at room temp; read-out: IC50 range
Method: Reactions were performed in duplicate in black 384 well plates (small volume, Greiner 784076) in a final reaction volume of 21 μl. Either 1 μl of 50% DMSO or diluted compound was added to the plate. USP30 was diluted in reaction buffer (40 mM Tris, pH 7.5, 0.005% Tween 20, 0.5 mg/ml BSA, 5 mM beta-mercaptoethanol) to the equivalent of 0.05 μl/well and 10 μl of diluted USP30 was added to the compound. Enzyme and compound were incubated for 30 min at room temp. Reactions were initiated by the addition of 50 nM of TAMRA labelled peptide linked to ubiquitin via an iso-peptide bond as fluorescence polarisation substrate. Reactions were read immediately after addition of substrate and following a 2 h incubation at room temperature. Readings were performed on a Pherastar Plus (BMG Labtech). λ Excitation 540 nm; λ Emission 590 nm.

Sequence of USP30 (Q70CQ3 57-517): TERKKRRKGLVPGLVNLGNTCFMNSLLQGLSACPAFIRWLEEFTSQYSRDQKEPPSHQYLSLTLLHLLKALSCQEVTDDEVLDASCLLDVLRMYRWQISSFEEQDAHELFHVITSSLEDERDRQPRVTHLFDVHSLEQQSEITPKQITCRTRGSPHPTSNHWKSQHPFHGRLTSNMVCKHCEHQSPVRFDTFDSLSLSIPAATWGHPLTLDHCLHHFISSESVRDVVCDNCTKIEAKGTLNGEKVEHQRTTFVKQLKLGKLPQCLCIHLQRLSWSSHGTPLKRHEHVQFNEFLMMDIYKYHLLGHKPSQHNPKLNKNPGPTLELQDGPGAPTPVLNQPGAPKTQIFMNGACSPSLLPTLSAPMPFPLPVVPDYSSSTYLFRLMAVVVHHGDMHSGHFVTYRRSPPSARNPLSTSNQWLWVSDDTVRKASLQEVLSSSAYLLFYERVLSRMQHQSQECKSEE

| SMILES | IC50 |
| --- | --- |
| N#CN1CCOC(C(=O)Nc2cc(-c3ccccc3)[nH]n2)C1 (centres unmarked) [Example 11, 4-Cyano-N-(5-phenyl-1H-pyrazol-3-yl)morpholine-2-carboxamide] | 1000 to 10000 nM |
| N#CN1CCCC(C(=O)Nc2cc(-c3ccccc3)no2)C1 (centres unmarked) [Example 41, 1-Cyano-N-(3-phenylisoxazol-5-yl)piperidine-3-carboxamide] | 1000 to 10000 nM |
| N#CN1CCCC(C(=O)Nc2ccc(-c3ccccc3)cn2)C1 (centres unmarked) [Example 39, 1-Cyano-N-(5-phenylpyridin-2-yl)piperidine-3-carboxamide] | 1000 to 10000 nM |
| N#CN1CCC[C@](F)(C(=O)Nc2ccc(-c3ccn[nH]3)cn2)C1 [Example 72, (R)—N-(5-(1H-Pyrazol-5-yl)pyridin-2-yl)-1-cyano-3-fluoropiperidine-3-carboxamide] | 100 to 1000 nM |
| N#Cc1cccc(-c2cc(NC(=O)C3(F)CCCN(C#N)C3)on2)c1 (centres unmarked) [Example 73, 1-Cyano-N-(3-(3-cyanophenyl)isoxazol-5-yl)-3-fluoropiperidine-3-carboxamide] | 100 to 1000 nM |
| N#CN1CCOC(C(=O)Nc2nc3ccc(-c4cn[nH]c4)cc3s2)C1 (centres unmarked) [Example 7, N-(6-(1H-Pyrazol-4-yl)benzo[d]thiazol-2-yl)-4-cyanomorpholine-2-carboxamide] | 100 to 1000 nM |
| N#Cc1ccnc(N2CCC(NC(=O)[C@H]3CN(C#N)CCO3)C2)c1 (stereo partly drawn) [Example 66, (2R)-4-Cyano-N-(1-(4-cyanopyridin-2-yl)pyrrolidin-3-yl)morpholine-2-carboxamide] | 1000 to 10000 nM |
| N#CN1CCO[C@@H](C(=O)Nc2ncc(-c3ccccc3)s2)C1 [Example 20, (R)-4-Cyano-N-(5-phenylthiazol-2-yl)morpholine-2-carboxamide] | 100 to 1000 nM |
| N#Cc1ccc2cnc(NC(=O)[C@H]3CN(C#N)CCO3)cc2c1 [Example 65, (R)-4-Cyano-N-(6-cyanoisoquinolin-3-yl)morpholine-2-carboxamide] | 1000 to 10000 nM |
| N#CN1CCC[C@H](C(=O)Nc2ncc(-c3ccccc3)s2)C1 [Example 56, (S)-1-Cyano-N-(5-phenylthiazol-2-yl)piperidine-3-carboxamide] | 1000 to 10000 nM |
| N#CN1CCC[C@](F)(C(=O)Nc2ccc(-n3cccn3)cn2)C1 [Example 77, (R)—N-(5-(1H-Pyrazol-1-yl)pyridin-2-yl)-1-cyano-3-fluoropiperidine-3-carboxamide] | 100 to 1000 nM |
| N#Cc1cccc(-c2ccnc(NC(=O)[C@@]3(F)CCCN(C#N)C3)c2)c1 [Example 52, (R)-1-Cyano-N-(4-(3-cyanophenyl)pyridin-2-yl)-3-fluoropiperidine-3-carboxamide] | 100 to 1000 nM |
| N#CN1CCO[C@H](C(=O)Nc2cc(-c3ccccc3)ccn2)C1 [Example 35, (S)-4-Cyano-N-(4-phenylpyridin-2-yl)morpholine-2-carboxamide] | 1000 to 10000 nM |
| N#CN1CCOC(C(=O)Nc2ccc(-c3ccccc3)cc2)C1 (centres unmarked) [Example 9, N-([1,1′-Biphenyl]-4-yl)-4-ycanomorpholine-2-carboxamide] | 1000 to 10000 nM |
| Cn1cc(-c2ccc(NC(=O)C3CN(C#N)CCO3)cc2)cn1 (centres unmarked) [Example 5, 4-Cyano-N-(4-(1-methyl-1H-pyrazol-4-yl)phenyl)morpholine-2-carboxamide] | 1000 to 10000 nM |
| N#CN1CCCC(C(=O)Nc2cc(-c3ccccc3)[nH]n2)C1 (centres unmarked) [Example 38, 1-Cyano-N-(5-phenyl-1H-pyrazol-3-yl)piperidine-3-carboxamide] | 1000 to 10000 nM |
| CC(C)Oc1cccc(-c2cc(NC(=O)[C@H]3CN(C#N)CCO3)ncn2)c1 [Example 23, (R)-4-Cyano-N-(6-(3-isopropoxy-phenyl)pyrimidin-4-yl)morpholine-2-carboxamide] | 1000 to 10000 nM |
| N#CN1CCO[C@@H](C(=O)Nc2ccc(-c3ccn[nH]3)cn2)C1 [Example 29, (R)-N-(5-(1H-Pyrazol-5-yl)pyridin-2-yl)-4-cyanomorpholine-2-carboxamide] | 1000 to 10000 nM |
| N#CN1CCC[C@](F)(C(=O)Nc2cn(-c3cccc(OC(F)(F)F)c3)cn2)C1 (stereo in doubt) [Example 81, 1-Cyano-3-fluoro-N-(1-(3-(trifluoromethoxy)phenyl)-1H-imidazol-4-yl)piperidine-3-carboxamide] | 100 to 1000 nM |
| N#CN1CCO[C@@H](C(=O)Nc2cc(-c3ccccc3)ccn2)C1 [Example 1, (R)-4-cyano-N-(4-phenylpyridin-2-yl)morpholine-2-carboxamide] | 100 to 1000 nM |
| N#Cc1cccc(-c2ccnc(NC(=O)[C@@H]3CN(C#N)CCO3)c2)c1 [Example 54, (S)-4-Cyano-N-(4-(3-cyanophenyl)pyridin-2-yl)morpholine-2-carboxamide] | 1000 to 10000 nM |
| N#CN1CCO[C@@H](C(=O)Nc2cc3cc(-c4cn[nH]c4)ccc3cn2)C1 [Example 31, (R)-N-(6-(1H-Pyrazol-4-yl)isoquinolin-3-yl)-4-cyanomorpholine-2-carboxamide] | 1000 to 10000 nM |
| N#CN1CCOC(C(=O)Nc2ncc(-c3ccc(F)cc3)s2)C1 (centres unmarked) [Example 2, 4-Cyano-N-(5-(4-fluorophenyl)thiazol-2-yl)morpholine-2-carboxamide] | 100 to 1000 nM |
| N#CN1CCOC(C(=O)Nc2ccc(-c3ccccc3)nc2)C1 (centres unmarked) [Example 17, 4-Cyano-N-(6-phenylpyridin-3-yl)morpholine-2-carboxamide] | 1000 to 10000 nM |
| N#Cc1cccc(-n2cc(NC(=O)[C@@]3(F)CCCN(C#N)C3)nn2)c1 [Example 82, (R)-1-Cyano-N-(1-(3-cyanophenyl)-1H-1,2,3-triazol-4-yl)-3-fluoropiperidine-3-carboxamide] | 100 to 1000 nM |
| N#CN1CCCC(F)(C(=O)Nc2ccc(-c3ccn[nH]3)cn2)C1 (racemic) [Example 49, N-(5-(1H-Pyrazol-5-yl)pyridin-2-yl)-1-cyano-3-fluoropiperidine-3-carboxamide] | 100 to 1000 nM |
| N#CN1CCC[C@](F)(C(=O)Nc2ccc(-c3cccc4cn[nH]c34)nn2)C1 [Example 88, (R)—N-(6-(1H-indazol-7-yl)pyridazin-3-yl)-1-cyano-3-fluoropiperidine-3-carboxamide] | < 100 nM |
| N#CN1CCC[C@](F)(C(=O)Nc2cc(-c3cccc(Cl)c3)no2)C1 [Example 76, (R)—N-(3-(3-Chlorophenyl)isoxazol-5-yl)-1-cyano-3-fluoropiperidine-3-carboxamide] | < 100 nM |
| N#CN1CCCC(F)(C(=O)Nc2nc3ccc(-c4cn[nH]c4)cc3s2)C1 (centres unmarked) [Example 50, N-(6-(1H-Pyrazol-4-yl)benzo[d]thiazol-2-yl)-1-cyano-3-fluoropiperidine-3-carboxamide] | 1000 to 10000 nM |
